Source: patent publication EP2130831A1, “CDC25 inhibitors” (InterMed Discovery GmbH, priority 2008, dated 2009)
Where two headings read alike, the source gives them in different places. Values belong to the molecule of their own block, whether it stands above or below them.

Assays:
CDC25C = target: T1, CDC25C (Homo sapiens, UniProt P30307); assay: CDC25C Enzyme Assay (hydrolysis of fluorogenic substrate OMFP); assay type: biochemical
T1 sequence (P30307 1-473): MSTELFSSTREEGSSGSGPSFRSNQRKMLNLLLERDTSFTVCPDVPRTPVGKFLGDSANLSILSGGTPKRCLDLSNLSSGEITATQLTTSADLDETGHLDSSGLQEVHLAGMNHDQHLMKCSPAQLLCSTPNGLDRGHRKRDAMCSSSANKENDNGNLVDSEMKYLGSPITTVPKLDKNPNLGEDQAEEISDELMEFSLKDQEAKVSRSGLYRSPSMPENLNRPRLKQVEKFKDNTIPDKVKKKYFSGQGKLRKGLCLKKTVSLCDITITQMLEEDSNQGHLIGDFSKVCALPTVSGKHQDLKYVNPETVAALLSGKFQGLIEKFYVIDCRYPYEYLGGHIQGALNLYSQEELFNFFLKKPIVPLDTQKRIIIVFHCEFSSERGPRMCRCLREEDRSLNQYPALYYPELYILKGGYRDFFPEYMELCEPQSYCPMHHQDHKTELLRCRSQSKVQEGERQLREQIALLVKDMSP
Protocol: The assay principle was hydrolysis of an artificial fluorogenic substrate of CDC25C, 3-0-methyl-fluorescein monophosphate (OMFP). […] The assay was performed in 96 well microtiter plates (Greiner 96 well black FIA plates) at ambient temperature.
The additions to the wells were as follows: 1 Addition of 4 µl of a DMSO solution of the test compound; controls received 4 µl of DMSO instead 2 Addition of 76 µl assay buffer (assay buffer: 100 mM Tris pH 8.2, 40 mM NaCl. 5 mM DTT, 20% glycerol) 3 Addition of 10 µl CDC25 C (CDC25 C in assay buffer; protein final concentration 1.1 µg/mL) 4 Start of reaction by addition of 10 µl OMFP (substrate in assay buffer; final concentration of OMFP in assay: 90 µM )
Ortho-vanadate was used as a reference inhibitor. Background controls contained buffer, substrate and DMSO, but no enzyme. The microtiter plates were analyzed using a Tecan Ultra fluorescence reader.

DU145 = assay: Cell proliferation Assay (Alamar Blue), DU145; assay type: cell-based; conditions: Homo sapiens, DU-145, 72 hrs
Protocol: (§1) Used cell lines: HCT116; DU145; A549, H460 In a 96-well plate, 3000 cells/well were plated in 100 µl DMEM containing 10% FBS, 10 mM HEPES and 1% Penicllin/Streptomycin. To each well 50 µl of additional growth media containing the compound with 0.1% DMSO was added. Cells were grown for 72 hrs. at 37°C. 20 µl of Alamar Blue reagent was added and incubated for 3-5 hours until color develops. Plates were read in a SpectraMax Gemini (Molecular Devices, CA) with 544 nm excitation and 590 nm emission wavelength.

HCT116 = assay: Cell proliferation Assay (Alamar Blue), HCT116; assay type: cell-based; conditions: Homo sapiens, HCT-116, 72 hrs
Protocol: as §1

H460 = assay: Cell proliferation Assay (Alamar Blue), H460; assay type: cell-based; conditions: Homo sapiens, NCI-H460, 72 hrs
Protocol: as §1

[1] = tested on: leukemia cell line (P388); assay: In vitro cell assays against a leukemia cell line; assay type: cell-based; conditions: result in words
CDC25 = conditions: literature reports; cited from earlier work
A549 = assay: Cell proliferation Assay (Alamar Blue), A549; assay type: cell-based; conditions: Homo sapiens, 72 hrs
Protocol: as §1, with “wavelength. Table #5: Results assay #2” for “wavelength.”

PTP1 B = target: T2, PTP1 B (Homo sapiens, UniProt P18031); assay: Phosphatase counter-screen against PTP1 B; assay type: biochemical
T2 sequence (P18031 1-435): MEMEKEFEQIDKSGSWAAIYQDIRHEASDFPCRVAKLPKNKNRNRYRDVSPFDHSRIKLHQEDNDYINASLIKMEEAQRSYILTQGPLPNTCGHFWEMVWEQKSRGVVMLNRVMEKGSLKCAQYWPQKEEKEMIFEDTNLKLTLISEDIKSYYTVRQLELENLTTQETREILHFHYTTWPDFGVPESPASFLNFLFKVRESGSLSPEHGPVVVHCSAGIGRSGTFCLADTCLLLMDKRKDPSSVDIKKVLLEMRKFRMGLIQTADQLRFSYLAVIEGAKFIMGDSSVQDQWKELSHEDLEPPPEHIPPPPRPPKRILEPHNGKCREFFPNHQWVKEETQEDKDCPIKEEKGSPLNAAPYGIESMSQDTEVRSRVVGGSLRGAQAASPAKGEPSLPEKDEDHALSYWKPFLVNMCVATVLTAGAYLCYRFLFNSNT

CDC25A = target: T3, CDC25A (Homo sapiens, UniProt P30304); assay: CDC25A inhibition assay (sub-type selectivity); assay type: biochemical; conditions: after 20 minutes of pre-incubation; read-out: IC50 against CDC25A
T3 sequence (P30304 1-524): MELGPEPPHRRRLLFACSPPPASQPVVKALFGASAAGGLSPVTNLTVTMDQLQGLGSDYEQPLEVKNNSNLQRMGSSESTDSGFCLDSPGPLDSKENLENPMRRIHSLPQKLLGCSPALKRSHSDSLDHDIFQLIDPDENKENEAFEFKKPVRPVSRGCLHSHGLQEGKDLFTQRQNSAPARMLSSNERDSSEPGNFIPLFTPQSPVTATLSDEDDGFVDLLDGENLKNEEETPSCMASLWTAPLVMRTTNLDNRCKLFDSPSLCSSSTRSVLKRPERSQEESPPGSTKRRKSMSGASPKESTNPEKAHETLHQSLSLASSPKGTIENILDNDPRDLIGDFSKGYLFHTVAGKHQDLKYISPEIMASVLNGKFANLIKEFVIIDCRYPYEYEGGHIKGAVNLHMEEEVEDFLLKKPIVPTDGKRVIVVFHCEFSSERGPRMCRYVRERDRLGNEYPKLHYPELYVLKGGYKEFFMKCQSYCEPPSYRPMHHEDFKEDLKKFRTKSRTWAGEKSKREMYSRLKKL
From the text: (§2) The compound of example 5 was thoroughly characterized towards its selectivity for CDC25 sub-types A, B, and C.

CDC25B = target: T4, CDC25B (Homo sapiens, UniProt P30305); assay: CDC25B inhibition assay (sub-type selectivity); assay type: biochemical; conditions: after 20 minutes of pre-incubation; read-out: IC50 against CDC25B
T4 sequence (P30305 1-580): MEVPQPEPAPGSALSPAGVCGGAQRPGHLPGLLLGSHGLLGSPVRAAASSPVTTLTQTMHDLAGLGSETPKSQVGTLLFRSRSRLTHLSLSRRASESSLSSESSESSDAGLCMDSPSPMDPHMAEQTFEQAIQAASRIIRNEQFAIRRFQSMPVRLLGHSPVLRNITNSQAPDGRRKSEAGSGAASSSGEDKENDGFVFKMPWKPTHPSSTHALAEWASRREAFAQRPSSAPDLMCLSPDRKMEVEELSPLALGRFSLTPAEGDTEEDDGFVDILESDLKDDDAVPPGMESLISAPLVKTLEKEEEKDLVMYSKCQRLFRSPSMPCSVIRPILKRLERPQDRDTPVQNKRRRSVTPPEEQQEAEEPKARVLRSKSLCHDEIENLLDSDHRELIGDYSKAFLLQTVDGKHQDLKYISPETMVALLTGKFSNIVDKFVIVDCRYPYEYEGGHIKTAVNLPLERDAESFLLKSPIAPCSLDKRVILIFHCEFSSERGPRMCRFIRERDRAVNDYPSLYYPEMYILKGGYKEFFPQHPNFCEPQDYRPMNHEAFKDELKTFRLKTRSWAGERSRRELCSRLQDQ
From the text: as §2

LAR (PTPRF) = LAR (PTPRF) (Homo sapiens, UniProt P10586); assay: Phosphatase counter-screen against LAR (PTPRF); assay type: biochemical
[2] = OMFP 90 µM, ambient temperature, assay run time 20 minutes, read-out: IC50

Chain of LAR (PTPRF) (P10586 30-1907, species assumed): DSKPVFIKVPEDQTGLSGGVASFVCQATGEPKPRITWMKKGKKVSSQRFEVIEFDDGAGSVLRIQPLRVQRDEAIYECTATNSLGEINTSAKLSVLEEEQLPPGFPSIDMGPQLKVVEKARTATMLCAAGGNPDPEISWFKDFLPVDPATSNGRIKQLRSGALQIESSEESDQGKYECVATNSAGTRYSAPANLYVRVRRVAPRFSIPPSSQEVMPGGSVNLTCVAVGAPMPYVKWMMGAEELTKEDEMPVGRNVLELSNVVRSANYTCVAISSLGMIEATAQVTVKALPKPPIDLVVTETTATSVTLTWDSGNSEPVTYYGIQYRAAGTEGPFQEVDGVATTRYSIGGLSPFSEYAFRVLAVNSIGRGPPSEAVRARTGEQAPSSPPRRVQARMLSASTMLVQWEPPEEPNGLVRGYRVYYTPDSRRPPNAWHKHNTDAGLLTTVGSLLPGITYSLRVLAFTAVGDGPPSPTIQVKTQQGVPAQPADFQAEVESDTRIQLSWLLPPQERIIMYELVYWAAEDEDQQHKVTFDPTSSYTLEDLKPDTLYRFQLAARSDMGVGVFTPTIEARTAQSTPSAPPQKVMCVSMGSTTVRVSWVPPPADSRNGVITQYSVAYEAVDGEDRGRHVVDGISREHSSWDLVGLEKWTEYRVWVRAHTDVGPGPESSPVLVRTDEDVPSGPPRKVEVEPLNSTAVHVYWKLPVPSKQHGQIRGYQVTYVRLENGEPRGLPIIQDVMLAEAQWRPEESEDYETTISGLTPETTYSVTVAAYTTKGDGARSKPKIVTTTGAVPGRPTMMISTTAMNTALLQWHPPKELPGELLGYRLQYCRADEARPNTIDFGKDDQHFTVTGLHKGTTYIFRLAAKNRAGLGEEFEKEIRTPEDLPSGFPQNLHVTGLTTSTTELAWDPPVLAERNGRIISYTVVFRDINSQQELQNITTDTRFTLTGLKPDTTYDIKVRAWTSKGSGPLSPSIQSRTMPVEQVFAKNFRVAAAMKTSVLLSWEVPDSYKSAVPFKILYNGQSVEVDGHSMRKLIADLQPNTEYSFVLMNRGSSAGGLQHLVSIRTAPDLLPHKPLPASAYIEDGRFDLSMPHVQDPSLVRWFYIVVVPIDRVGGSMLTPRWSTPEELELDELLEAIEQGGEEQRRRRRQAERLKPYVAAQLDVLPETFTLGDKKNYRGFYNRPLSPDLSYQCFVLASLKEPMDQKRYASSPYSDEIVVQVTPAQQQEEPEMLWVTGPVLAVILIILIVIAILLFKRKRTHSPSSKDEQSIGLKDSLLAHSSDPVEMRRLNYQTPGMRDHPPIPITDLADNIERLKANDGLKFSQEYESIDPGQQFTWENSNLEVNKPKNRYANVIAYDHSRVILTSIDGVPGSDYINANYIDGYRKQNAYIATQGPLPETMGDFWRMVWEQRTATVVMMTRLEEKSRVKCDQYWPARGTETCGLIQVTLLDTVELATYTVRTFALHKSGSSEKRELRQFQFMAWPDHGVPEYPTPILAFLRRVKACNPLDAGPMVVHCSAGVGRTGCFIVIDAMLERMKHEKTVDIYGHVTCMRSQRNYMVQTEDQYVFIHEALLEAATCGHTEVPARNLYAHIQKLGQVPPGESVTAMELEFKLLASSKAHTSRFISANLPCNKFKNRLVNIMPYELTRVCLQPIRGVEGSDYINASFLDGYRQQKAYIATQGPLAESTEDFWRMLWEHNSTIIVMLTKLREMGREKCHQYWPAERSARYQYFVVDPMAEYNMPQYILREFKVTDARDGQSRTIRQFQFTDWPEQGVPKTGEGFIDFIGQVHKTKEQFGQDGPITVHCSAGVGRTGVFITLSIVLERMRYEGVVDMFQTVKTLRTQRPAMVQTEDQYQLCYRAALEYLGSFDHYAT

Molecule: C=C(C)CCC[C@]1(C)CCC[C@@H]2C1=CC[C@@H](C)[C@@]2(C)C[C@@H](O)C1=CC(=O)O[C@H]1O [dysidiolide]
- inhibit CDC25 (CDC25): micromolar levels

Molecule: Cc1cc(=O)n(C)c2c3c4c(c(C)cc(=O)n4CO3)c(O)c12 [Example 3, 7-hydroxy-deoxynybomycin]
- IC50 (CDC25C; [2]): 5000 nM

Molecule: coscinosulfate
- inhibit CDC25 (CDC25): micromolar levels

Molecule: Cc1cc(=O)n(C)c2c(O)c3c(cc12)c(C)cc(=O)n3C [Example 6, 10-hydroxy-1,4,6,9-tetramethylpyrido[3,2-g]-quinoline-2,8(1H,9H)-dione]
- IC50 (CDC25C; [2]): 14500 nM
- IC50 (DU145): 3000 nM
- IC50 (HCT116): 3000 nM
- IC50 (A549): < 10000 nM
- IC50 (H460): < 10000 nM

Molecule: CCCc1c(C)c(=O)[nH]c2c(O)c3[nH]c(=O)c(C)c(CCC)c3cc12 [Example 10, 10-hydroxy-3,7-dimethyl-4,6-dipropylpyrido-[3,2-g]quinoline-2,8(1H,9H)-dione]
- IC50 (CDC25C; [2]): 850 nM
- potential as inhibitors of CDC25 compared with the comparative examples (1, 2, 3, 4, 6 and 9) [1]: much higher potential

Molecule: Cc1cc(=O)[nH]c2c(O)c3c(cc12)c(C)cc(=O)n3C [Example 5, 10-hydroxy-1,4,6-trimethylpyndo[3,2-g]quino-line-2,8(1H,9H)-dione]
- IC50 (CDC25C; after 20 minutes of pre-incubation, read-out: IC50 against CDC25C): 180 nM
- selectivity for CDC25 subtypes in comparison to PTP1 B (PTP1 B): 13 fold
- IC50 (CDC25A): 150 nM
- IC50 (DU145): 100 nM
- IC50 (HCT116): 100 nM
- IC50 (A549): 100 nM
- IC50 (CDC25B): 230 nM
- selectivity for CDC25 subtypes in comparison to LAR (LAR (PTPRF)): 100 fold
- potential as inhibitors of CDC25 compared with the comparative examples (1, 2, 3, 4, 6 and 9) [1]: much higher potential
- IC50 (H460): < 300 nM

Molecule: CCCc1c2c([nH]c(=O)c1C)C(=O)c1[nH]c(=O)c(C)c(CCC)c1C2=O [Example 9, 3,7-dimethyl-4,6-dipropylpyrido[3,2-g]-qujnoline-2,5,8,10(1H,9H)-tetraone; Diazaquinomycin A]
- IC50 (CDC25C; [2]): 225000 nM

Molecule: nocardione
- inhibit CDC25 (CDC25): micromolar levels

Molecule: Cc1cc(=O)n(C)c2c(O)c3c(cc12)c(C)cc(=O)n3O [Example 8, 1,10-dihydroxy-4,6,9-trimethylpyrido[3,2-g]-quinoline-2,8(1H,9H)-dione]
- IC50 (CDC25C; [2]): 520 nM
- potential as inhibitors of CDC25 compared with the comparative examples (1, 2, 3, 4, 6 and 9) [1]: much higher potential

More lines, main results first:

- IC50 (CDC25C; [2]): 14000 nM
Molecule: Cn1c(=O)cc(CO)c2cc3c(CO)cc(=O)n4c3c(c21)OC4 [Example 4, 6'-hydroxynybomycin]

- IC50 (CDC25C; [2]): > 20000 nM
- IC50 (DU145): 720 nM
- IC50 (HCT116): 730 nM
- IC50 (H460): 230 nM
Molecule: Cc1cc(=O)n2c3c(c4c(cc13)c(CO)cc(=O)n4C)OC2 [Example 1, nybomycin]

- IC50 (CDC25C; [2]): 930 nM
Molecule: Cc1cc(=O)[nH]c2c(O)c3c(cc12)c(CO)cc(=O)n3C [Example 7, 10-hydroxy-4-(hydroxymethyl)-1,6-dimethyl-pyrido[3,2-g]quinoline-2,8(1H,9H)-dione]
- potential as inhibitors of CDC25 compared with the comparative examples (1, 2, 3, 4, 6 and 9) [1]: much higher potential

- IC50 (CDC25C; [2]): > 10000 nM
Molecule: Cc1cc(=O)n(C)c2c3c4c(cc12)c(C)cc(=O)n4CO3 [Example 2, deoxynybomycin]
